The text below walks through data of ChEMBL document CHEMBL4184163, “Aspergillus candidus is a newly recognized source of sphaeropsidin A: Isolation, semi-synthetic derivatization and anticancer evaluation” (Bioorg Med Chem Lett, 2017).

The species named for series [1] is Homo sapiens. The series can be described thus: Antiproliferative activity against human D423 cells grown as 2D culture at 0.0625 to 10 uM after 5 days by CellTiter-Glo luminescence assay. Format: functional, cell-based.
The species named for series [2] is Homo sapiens. The series can be described thus: Antiproliferative activity against human GLI56 cells grown as 3D culture at 10 uM after 5 days by CellTiter-Glo 3D viability assay. Format: functional, cell-based.
The species entered for series [3] is Homo sapiens. The series can be described thus: Antiproliferative activity against human D423 cells grown as 3D culture at 10 uM after 5 days by CellTiter-Glo 3D viability assay. Format: functional, cell-based.
The species entered for series [4] is Homo sapiens. The series can be described thus: Antiproliferative activity against human GLI56 cells grown as 2D culture at 0.0625 to 10 uM after 5 days by CellTiter-Glo luminescence assay. Format: functional, cell-based. For orientation: Cellular ATP, detected with luciferase, serves as a proxy for viable cell number.
For series [5], the species on record is Homo sapiens. The series can be described thus: Cytotoxicity against human D423 cells grown as 3D culture assessed as disruption of morphological integrity at 10 uM after 5 days by confocal laser scanning microscopic method. Format: functional, cell-based.
Series [6] is filed under the species Homo sapiens. The series can be described thus: Cytotoxicity against human GLI56 cells grown as 3D culture assessed as disruption of morphological integrity at 10 uM after 5 days by confocal laser scanning microscopic method. Format: functional, cell-based.
Series [7] relates to Panel NCI-60 (60 carcinoma cell lines). The series can be described thus: Growth inhibition of human NCI60 cells. Format: functional.
Series [8] in a line: Growth inhibition of normal human epidermal melanocytes by MTT assay. Format: cell-based, Melanocyte. (In general: Tetrazolium dyes change colour on reduction, which living cells bring about.)

Active and inactive are the calls of the source. The calls are words filed in the database; no cut-off is given here.

In the case of `CC1(C)CCC[C@]23C(=O)O[C@](O)(C(=O)C4=C[C@@](C)(/C=C/[Si](C)(C)C)CC[C@@]42O)[C@@H]13`, the outcome in the series filed under Homo sapiens [1] and in the series listed under Homo sapiens [4] was Active. Also, the result in the series listed under Homo sapiens [2] and in the series listed under Homo sapiens [3] was inactive.

`C=C[C@]1(C)C=C2C(=O)[C@@]3(OC(=O)c4ccc(C)o4)OC(=O)[C@@]4(CCCC(C)(C)[C@H]34)[C@@]2(O)CC1`: the result in the series listed under Homo sapiens [5], in the series filed under Homo sapiens [1], in the series filed under Homo sapiens [2], in the series listed under Homo sapiens [3], in the series listed under Homo sapiens [6] and in the series filed under Homo sapiens [4] was Active.

Turning to `C=C[C@]1(C)C=C2C(=O)[C@@]3(OC(=O)CCC)OC(=O)[C@@]4(CCCC(C)(C)[C@H]34)[C@@]2(O)CC1`, the result in the series filed under Homo sapiens [1], in the series listed under Homo sapiens [2], in the series listed under Homo sapiens [6] and in the series filed under Homo sapiens [4] was Active. Also, in the series listed under Homo sapiens [3], the outcome was inactive.

Consider `CC1(C)CCC[C@]23C(=O)O[C@](O)(C(=O)C4=C[C@@](C)(/C=C/c5ccc(Cl)cc5)CC[C@@]42O)[C@@H]13`, for which the outcome in the series filed under Homo sapiens [5], in the series listed under Homo sapiens [1], in the series listed under Homo sapiens [2], in the series listed under Homo sapiens [3], in the series listed under Homo sapiens [6] and in the series listed under Homo sapiens [4] was Active.

What is called GI50 is the concentration at which growth is held to half of that of the control. Read a high GI50 as less potent growth inhibition. For the compound `C=C[C@]1(C)C=C2C(=O)[C@@]3(O)OC(=O)[C@@]4(CCCC(C)(C)[C@H]34)[C@@]2(O)CC1` [SPHAEROPSIDIN A], the outcome in the series filed under Homo sapiens [1] and in the series listed under Homo sapiens [4] was Active. In addition, the GI50 in series [7] worked out at 1.6 µM; in series [8], 13 µM. Also, the outcome in the series filed under Homo sapiens [2], in the series listed under Homo sapiens [3] and in the series listed under Homo sapiens [6] was inactive.

Take `C=CCCCC(=O)O[C@]12OC(=O)[C@@]3(CCCC(C)(C)[C@H]13)[C@@]1(O)CC[C@](C)(C=C)C=C1C2=O`: the outcome in the series filed under Homo sapiens [1], in the series listed under Homo sapiens [2], in the series filed under Homo sapiens [6] and in the series filed under Homo sapiens [4] was Active. For the same compound, in the series listed under Homo sapiens [3], the outcome was inactive.
